Laboratory results reported in ChEMBL document CHEMBL5247679, “Novel Quinoline Compounds as KRAS Inhibitors for Treating Cancer” (ACS Med Chem Lett, 2023).
pIC50: −log10 of the molar value.

Key:
GTPase KRas [1] = target: GTPase KRas (Homo sapiens, UniProt P01116, G12D); assay: Inhibition of KRAS G12D mutant (unknown origin) preincubated for 4 hrs followed by SOS1 addition and measured after 2 hrs by fluorescence based analysis
GTPase KRas [2] = target: GTPase KRas (Homo sapiens, UniProt P01116, G12V); assay: Inhibition of KRAS G12V mutant (unknown origin) preincubated for 4 hrs followed by SOS1 addition and measured after 3 hrs by fluorescence based analysis
GTPase KRas (Homo sapiens, UniProt P01116, G12V), sequence (P01116 whole entry G12V): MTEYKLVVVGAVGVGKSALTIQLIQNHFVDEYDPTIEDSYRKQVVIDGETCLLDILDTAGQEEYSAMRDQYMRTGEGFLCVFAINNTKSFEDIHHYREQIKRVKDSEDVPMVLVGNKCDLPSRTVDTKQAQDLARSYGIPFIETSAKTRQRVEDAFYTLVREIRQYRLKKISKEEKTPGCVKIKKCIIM

GTPase KRas (Homo sapiens, UniProt P01116, G12D), sequence (P01116 whole entry G12D): as the sequence (P01116 whole entry G12V) above, with V12D counted along it

pIC50 (GTPase KRas [1]) | pIC50 (GTPase KRas [2]) | SMILES
≥ 7.00 | ≥ 7.00 | Cc1nc2c(F)c(-c3cccc(Cl)c3Cl)c(CCC#N)cc2c2c1cc([C@@H](C)NS(=O)(=O)C1CC1)n2[C@H]1[C@H]2CN[C@@H]1C2
≥ 7.00 | ≥ 7.00 | Cc1nc2c(F)c(-c3cccc(Cl)c3Cl)c(CCC#N)cc2c2c1cc([C@@H](C)NC(=O)c1cscn1)n2[C@H]1[C@H]2CN[C@@H]1C2
≥ 7.00 | ≥ 7.00 | Cc1nc2c(F)c(-c3cccc(Cl)c3Cl)c(CCC#N)cc2c2c1cc([C@@H](C)NC(=O)c1ccncn1)n2[C@H]1[C@H]2CN[C@@H]1C2
≥ 7.00 | ≥ 7.00 | CN(C)C1(C)CN(c2nc3c(F)c(-c4cccc5ccc(F)cc45)c(CCC#N)cc3c3c2cc(CN2CCOCC2=O)n3[C@@H]2[C@@H]3CN[C@H]2C3)C1
≥ 7.00 | ≥ 7.00 | Cc1cc2c(-n3cncn3)nc3c(F)c(-c4cc(O)cc5ccc(Cl)cc45)c(CCC#N)cc3c2n1[C@H]1[C@H]2CN[C@@H]1C2
≥ 7.00 | ≥ 7.00 | C[C@H](Oc1nc2c(F)c(-c3csc4ccccc34)c(CCC#N)cc2c2c1cc(CN1CCCC1=O)n2[C@H]1[C@H]2CN[C@@H]1C2)[C@@H]1CCCN1C
